Data on eight compounds can be found in US12303509B2, “Compounds for the treatment of BRAF-associated diseases and disorders” (Pfizer Inc., priority 2020, dated 2025).

A word on the efflux ratio: it is the permeability from basolateral to apical divided by that in the opposite direction, in the common usage. Usually IC50 stands for the concentration needed to halve the response being measured. As usually defined, the Papp is a coefficient for how fast a substance crosses the barrier. Low values mean poor permeation, high ones ready permeation.

In series [1] the target is P-gp (MDR1) (Homo sapiens (Human), UniProt P08183). Nature of the series: MDR1 LLC-PK1 permeability assay: efflux ratio. It is filed as in vitro ADME. Conditions: pig. An excerpt:
(§1) Final organic concentration in the assay was 1%.

Series [2] has as its target full-length FLAG-tagged B-Raf(V600E) (Homo sapiens (Human), UniProt P15056, V600E). Nature of the series: BRAF V600E enzyme assay (TR-FRET competitive displacement). The class given is binding. The method, boiled down: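 Displacement of 50 nM Tracer 1710 from 5 nM full-length N-terminally FLAG-tagged B-Raf(V600E), detected by TR-FRET with 0.5 nM Eu anti-FLAG antibody, in 25 mM HEPES pH 7.4, 10 mM MgCl2, 2% DMSO; 60 min at ~22 °C. Compounds 11-point, 3-fold from 10 μM; IC50 from 4-parameter fit at 50 POC.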

A short description of series [3]: MDR1 LLC-PK1 and BCRP MDCKII permeability assay: permeability coefficient (Papp). The class given is in vitro ADME.
Excerpt: as §1

For series [4], the system named is H1755 cells. Nature of the series: Cellular phospho-ERK inhibition assay in H1755 cells. It is filed as cell-based. As to conditions: Homo sapiens, NCI-H1755, 2 hours treatment, read-out: H1755 Cell IC50. The method, then: A375 and H1755 cells were obtained from the American Type Culture Collection (ATCC, Rockville, MD). A375 cells were maintained in DMEM growth medium containing 10% FBS. H1755 cells were maintained in RPMI growth medium containing 10% FBS.
Cells were harvested according to standard protocols, counted and plated onto flat-bottom, 96-well tissue culture plates (Costar #3599) at 2.5×10^4 cells/well for A375 cells and 1.5×10^4 cells/well for H1755 cells in 100 μL/well of growth medium containing 10% FBS. After an overnight incubation at 37° C. with 5% CO2 cells were treated for 2 hours at 37° C., 5% CO2 with compounds prepared as a 9-point, 1:3.33 fold dilution series with final compound concentrations ranging from 66 pM-10 μM and a constant DMSO concentration of 0.25%. Control wells contained either 0.25% DMSO alone (uninhibited control) or 10 μM binimetinib (complete inhibition control). The levels of phosphorylated ERK are determined using an In Cell Western protocol: following compound incubation, growth medium was discarded, and cells were fixed with 0.4% formaldehyde in PBS for 20 minutes at room temperature. Cells were permeabilized with 100% methanol for 10 minutes at room temperature. Plates were washed with PBS containing 0.05% Tween-20 and blocked for 1 hour at room temperature with LI-COR Blocking Buffer (LI-COR Biosciences; Cat #927-40000). Plates were then incubated for 2 hours at room temperature with 50 μL of a 1:400 dilution of anti-phospho-ERK1/2 (Thr202/Tyr204) (Cell Signaling; Cat #9101) and a 1:1000 dilution of anti-GAPDH (Millipore; Cat #MAB374) in LI-COR blocking buffer containing 0.05% Tween-20. Plates were washed with PBS containing […] Tween-20 then incubated at room temperature for 1 hour with 50 μL of a 1:1000 dilution of anti-rabbit AlexaFluor 680 (Life Technologies; Cat #A21109) and a 1:1000 dilution of anti-mouse IRDye 800CW (LI-COR; Cat #926-32210) in LI-COR blocking buffer containing 0.05% Tween-20. Plates were analyzed by reading on an Odyssey CLx infrared scanner. For each well, the phospho-ERK signal was normalized to the GAPDH signal and converted to POC using the following equation:
[formula] • Where: • Xmax Average Uninhibited Controls • Xmin Average Complete Inhibition Controls IC50 values were then calculated using a 4-parameter fit in XLfit software and are provided in Table A1.

The subject of series [5] is A375 cells. Nature of the series: Cellular phospho-ERK inhibition assay in A375 cells. It is filed as cell-based. Conditions: Homo sapiens, A-375, A375 cells (head prints A357), 2 hours treatment, read-out: A357 cell IC50. The method, boiled down:
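A375 (DMEM) or H1755 (RPMI) cells in 10% FBS treated 2 h at 37 °C with 9-point series, 66 pM–10 μM, 0.25% DMSO. Phospho-ERK1/2 (Thr202/Tyr204) measured by In Cell Western, normalised to GAPDH and to DMSO and 10 μM binimetinib controls; IC50 by 4-parameter fit.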

The mark [6] stands for this setting: averaged IC50, TR-FRET tracer displacement, 60 min.

Where a name gives a salt, the structure may show the parent alone. Read-outs that look alike come from different tables or passages of the source.

Chain of full-length FLAG-tagged B-Raf(V600E) (P15056 whole entry V600E): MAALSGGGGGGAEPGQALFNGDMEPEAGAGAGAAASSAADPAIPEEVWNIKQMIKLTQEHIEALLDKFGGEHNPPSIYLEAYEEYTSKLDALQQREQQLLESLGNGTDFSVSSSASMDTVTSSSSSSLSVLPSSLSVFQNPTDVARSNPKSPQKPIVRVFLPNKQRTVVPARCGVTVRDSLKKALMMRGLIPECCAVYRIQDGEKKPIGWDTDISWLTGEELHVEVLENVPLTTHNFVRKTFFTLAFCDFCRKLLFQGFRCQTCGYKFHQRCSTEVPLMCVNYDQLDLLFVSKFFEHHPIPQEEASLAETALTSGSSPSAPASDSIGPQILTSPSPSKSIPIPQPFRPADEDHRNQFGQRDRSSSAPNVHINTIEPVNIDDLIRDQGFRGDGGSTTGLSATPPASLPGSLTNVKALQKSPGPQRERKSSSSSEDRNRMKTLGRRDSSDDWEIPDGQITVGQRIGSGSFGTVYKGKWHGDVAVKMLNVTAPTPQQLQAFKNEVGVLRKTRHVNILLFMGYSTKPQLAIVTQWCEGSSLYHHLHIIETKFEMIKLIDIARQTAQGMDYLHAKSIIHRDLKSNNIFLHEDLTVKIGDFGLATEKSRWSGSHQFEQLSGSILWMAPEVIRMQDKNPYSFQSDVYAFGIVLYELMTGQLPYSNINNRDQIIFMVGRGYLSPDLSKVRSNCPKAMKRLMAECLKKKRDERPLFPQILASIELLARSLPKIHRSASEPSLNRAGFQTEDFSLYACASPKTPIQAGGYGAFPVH
Chain of P-gp (MDR1) (P08183 whole entry, species assumed): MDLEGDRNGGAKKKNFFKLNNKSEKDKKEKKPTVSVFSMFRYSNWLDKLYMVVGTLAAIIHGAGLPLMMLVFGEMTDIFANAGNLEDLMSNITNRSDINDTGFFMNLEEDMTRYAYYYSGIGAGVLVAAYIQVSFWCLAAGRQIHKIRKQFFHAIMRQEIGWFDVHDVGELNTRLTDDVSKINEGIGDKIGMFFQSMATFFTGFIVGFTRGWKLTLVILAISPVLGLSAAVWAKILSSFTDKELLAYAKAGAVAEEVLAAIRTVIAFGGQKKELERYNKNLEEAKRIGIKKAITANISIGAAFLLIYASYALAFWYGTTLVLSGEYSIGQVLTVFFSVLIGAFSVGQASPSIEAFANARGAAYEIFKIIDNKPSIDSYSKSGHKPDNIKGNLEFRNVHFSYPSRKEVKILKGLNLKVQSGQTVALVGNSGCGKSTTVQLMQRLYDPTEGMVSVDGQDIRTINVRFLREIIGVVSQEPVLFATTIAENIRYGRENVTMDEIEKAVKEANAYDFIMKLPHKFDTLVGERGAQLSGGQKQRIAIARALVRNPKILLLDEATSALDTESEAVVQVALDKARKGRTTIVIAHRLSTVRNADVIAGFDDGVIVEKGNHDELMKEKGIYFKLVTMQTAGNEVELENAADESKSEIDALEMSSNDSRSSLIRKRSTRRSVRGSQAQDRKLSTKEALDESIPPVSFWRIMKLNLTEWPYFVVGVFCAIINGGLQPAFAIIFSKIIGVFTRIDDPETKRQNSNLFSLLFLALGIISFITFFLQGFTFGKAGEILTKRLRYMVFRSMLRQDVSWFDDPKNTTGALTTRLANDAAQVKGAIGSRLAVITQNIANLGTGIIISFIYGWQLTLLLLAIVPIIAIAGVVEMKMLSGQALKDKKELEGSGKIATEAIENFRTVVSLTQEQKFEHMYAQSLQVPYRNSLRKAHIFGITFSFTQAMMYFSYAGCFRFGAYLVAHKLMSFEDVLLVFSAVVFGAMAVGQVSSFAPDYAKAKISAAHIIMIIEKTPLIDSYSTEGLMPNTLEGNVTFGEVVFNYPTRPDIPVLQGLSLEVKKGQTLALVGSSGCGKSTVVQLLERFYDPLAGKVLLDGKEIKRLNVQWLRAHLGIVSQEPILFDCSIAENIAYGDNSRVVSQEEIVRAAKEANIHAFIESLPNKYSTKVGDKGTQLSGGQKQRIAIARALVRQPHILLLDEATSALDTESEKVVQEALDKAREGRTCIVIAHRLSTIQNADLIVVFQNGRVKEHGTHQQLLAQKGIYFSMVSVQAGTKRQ

With `Cn1cnc2ccc(Oc3c(F)ccc(NS(=O)(=O)N4C[C@@H](F)[C@@H](F)C4)c3Cl)c(F)c2c1=O` [Example 64, cis-N-(2-chloro-4-fluoro-3-((5-fluoro-3-methyl-4-oxo-3,4-dihydroquinazolin-6-yl)oxy)phenyl)-3,4-difluoropyrrolidine-1-sulfonamide], the efflux ratio at 2 h, 1 µM in series [1] amounted to 4.5. In addition, the figures for the IC50 in series [2], in series [4] and in series [5] were 2 nM, 64 nM and 7 nM, respectively. For the same compound, in series [3], the apparent permeability (Papp) at 2 h, 1 µM came out at 34 ×10⁻⁶ cm/s.

Turning to `Cc1c(Nc2c(F)c(F)cc(NS(=O)(=O)N3CC4CC3C4)c2Cl)ccc2ncn(C)c(=O)c12` [Example 101, N-(2-chloro-3-((3,5-dimethyl-4-oxo-3,4-dihydroquinazolin-6-yl)amino)-4,5-difluorophenyl)-2-azabicyclo[2.1.1]hexane-2-sulfonamide], the half-inhibitory concentration (IC50) in series [2] (setting [6]) came out at 3 nM; in series [4], 434 nM; in series [5] it was 37 nM.

With `Cc1c(Nc2c(F)c(F)cc(NS(=O)(=O)N3CC4CC4C3)c2Cl)ccc2ncn(C)c(=O)c12` (stereo not shown) [Example 102, N-(2-chloro-3-((3,5-dimethyl-4-oxo-3,4-dihydroquinazolin-6-yl)amino)-4,5-difluorophenyl)-3-azabicyclo[3.1.0]hexane-3-sulfonamide], the IC50 in series [2] (setting [6]) came to 1 nM; in series [4], 702 nM; in series [5], 73 nM.

`CO[C@@H]1CCN(S(=O)(=O)Nc2cc(Cl)cc(Nc3ccc4ncn(C)c(=O)c4c3C)c2F)C1` [Example 105, (R)-N-(5-chloro-3-((3,5-dimethyl-4-oxo-3,4-dihydroquinazolin-6-yl)amino)-2-fluorophenyl)-3-methoxypyrrolidine-1-sulfonamide]: the figures for the IC50 in series [2] (setting [6]), in series [4] and in series [5] were 15 nM, 268 nM and 147 nM, respectively.

Turning to `COCC1CN(S(=O)(=O)Nc2ccc(F)c(Oc3ccc4ncn(C)c(=O)c4c3Cl)c2Cl)C1` [Example 118, N-(2-chloro-3-((5-chloro-3-methyl-4-oxo-3,4-dihydroquinazolin-6-yl)oxy)-4-fluorophenyl)-3-(methoxymethyl)azetidine-1-sulfonamide], the efflux ratio at 2 h, 1 µM in series [1] amounted to 3.5. In addition, the half-maximal inhibitory concentration (IC50) was found to be 4 nM in series [2] (setting [6]), 41 nM in series [4] and 6 nM in series [5]. The compound also came in with an apparent permeability coefficient (Papp) at 2 h, 1 µM in series [3] of 34 ×10⁻⁶ cm/s.

With `COC1CN(S(=O)(=O)Nc2ccc(F)c(Oc3ccc4ncn(C)c(=O)c4c3Cl)c2Cl)C1` [Example 119, N-(2-chloro-3-((5-chloro-3-methyl-4-oxo-3,4-dihydroquinazolin-6-yl)oxy)-4-fluorophenyl)-3-methoxyazetidine-1-sulfonamide], the efflux ratio at 2 h, 1 µM in series [1] came to 3.8. Besides, the 50% inhibitory concentration (IC50) was found to be 6 nM in series [2] (setting [6]), 51 nM in series [4] and 8 nM in series [5]. In series [3], this compound displayed an apparent permeability (Papp) at 2 h, 1 µM of 32 ×10⁻⁶ cm/s.

On to `Cn1cnc2ccc(Oc3c(F)ccc(NS(=O)(=O)N4CC(F)C4)c3Cl)c(Cl)c2c1=O` [Example 120, N-(2-chloro-3-((5-chloro-3-methyl-4-oxo-3,4-dihydroquinazolin-6-yl)oxy)-4-fluorophenyl)-3-fluoroazetidine-1-sulfonamide], for which the efflux ratio at 2 h, 1 µM in series [1] is 3.8. Moreover, the IC50 in series [2] (setting [6]) is 2 nM; in series [4], 69 nM; in series [5] it was 4 nM. In addition, the Papp at 2 h, 1 µM in series [3] was determined as 30 ×10⁻⁶ cm/s.

Turning to `COCC1CN(S(=O)(=O)Nc2ccc(F)c(Nc3ccc4ncn(C)c(=O)c4c3Cl)c2Cl)C1` [Example 132, N-(2-chloro-3-((5-chloro-3-methyl-4-oxo-3,4-dihydroquinazolin-6-yl)amino)-4-fluorophenyl)-3-(methoxymethyl)azetidine-1-sulfonamide trifluoroacetate], in series [1], the efflux ratio at 2 h, 1 µM was 2.7. The results for the IC50 in series [2] (setting [6]), in series [4] and in series [5] were 13 nM, 33 nM and 3 nM, respectively. Moreover, the apparent permeability (Papp) at 2 h, 1 µM in series [3] is 36 ×10⁻⁶ cm/s.
